Experimental data reported in PubChem BioAssay (NCI).
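Values below derive from 48-hour exposures of cells grown in 96-well plates, with endpoints linearly interpolated between the two concentrations bracketing the appropriate inhibition level. TGI marks complete inhibition of growth.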

Columns and labels:
Experiment in all cases: NCI-60 cell line screen, 48 h
HCC-2998 colon = system: HCC-2998 colon
HCT-116 colon = system: HCT-116 colon
HS 578T breast = system: HS 578T breast
PC-3 prostate = system: PC-3 prostate
SF-268 CNS = system: SF-268 CNS
SF-539 CNS = system: SF-539 CNS
SN12C renal = system: SN12C renal
SW-620 colon = system: SW-620 colon
UACC-257 melanoma = system: UACC-257 melanoma
UO-31 renal = system: UO-31 renal
ACHN renal = system: ACHN renal

SMILES	TGI (HCC-2998 colon)	TGI (HCT-116 colon)	TGI (HS 578T breast)	TGI (PC-3 prostate)	TGI (SF-268 CNS)	TGI (SF-539 CNS)	TGI (SN12C renal)	TGI (SW-620 colon)	TGI (UACC-257 melanoma)	TGI (UO-31 renal)	TGI (ACHN renal)
COC(=O)N1N=C(c2ccccc2)C1c1ccccc1 (configuration not stated)	> 100 µM	> 100 µM	> 100 µM	> 100 µM	> 100 µM	> 100 µM	> 100 µM	> 100 µM	77.4 µM	52.9 µM	–
O=[N+]([O-])c1cccc2c(N=Nc3ccc4ccccc4c3O)c(O)cc(S(=O)(=O)O)c12	–	> 100 µM	> 100 µM	> 100 µM	> 100 µM	–	> 100 µM	> 100 µM	> 100 µM	56.1 µM	> 100 µM
O=C(/C=C/c1ccc2c(c1)OCO2)Cc1nc2ccccc2[nH]c1=O	86.8 µM	> 100 µM	40 µM	47.9 µM	55.3 µM	> 100 µM	60.2 µM	> 100 µM	59.5 µM	50.9 µM	74.3 µM
O=C(OCC1OC(n2nc(Cn3nnc(-c4cccnc4)n3)n(-c3cccc4ccccc34)c2=S)C(OC(=O)c2ccccc2)C1OC(=O)c1ccccc1)c1ccccc1 (configuration not stated)	> 100 µM	> 100 µM	> 100 µM	> 100 µM	> 100 µM	> 100 µM	> 100 µM	> 100 µM	> 100 µM	> 100 µM	> 100 µM
COC(=O)C1(O)C(c2ccccc2)=NC2(C)CCCC21 (configuration not stated)	> 100 µM	> 100 µM	> 100 µM	> 100 µM	> 100 µM	–	> 100 µM	> 100 µM	> 100 µM	> 100 µM	–
Clc1ccc(/C(=C\c2ccccc2)Cn2ccnc2)cc1	48.8 µM	29.1 µM	> 100 µM	31.9 µM	53.4 µM	31.5 µM	89.2 µM	> 100 µM	47.8 µM	32.4 µM	67.6 µM
O=C(CC(=O)Nc1ccccc1)NNC(c1cc(N=Nc2ccc(Br)cc2)ccc1O)P(O)O (configuration not stated)	> 10 µM	5.64 µM	> 10 µM	> 10 µM	> 10 µM	> 10 µM	> 10 µM	> 10 µM	> 10 µM	> 10 µM	> 10 µM
CC(C)N1CN(c2ccccc2)C2(CCN(CCCC(=O)c3ccc(F)cc3)CC2)C1=O	27.7 µM	5.52 µM	49.1 µM	> 71 µM	> 63.4 µM	22.1 µM	> 55.4 µM	24.2 µM	8.94 µM	58 µM	42.5 µM
CCOP(=O)(OCC)OC1CC(n2cc(C)c(=O)n(C)c2=O)OC1CO[Si](C)(C)C(C)(C)C (configuration not stated)	> 100 µM	> 100 µM	> 100 µM	> 100 µM	> 100 µM	> 100 µM	> 100 µM	> 100 µM	> 100 µM	7.15 µM	> 100 µM
CC(C)=CCC[C@@H](C)C1=C(O)C(N)=C(C)C(=O)C1=O	> 100 µM	> 100 µM	> 100 µM	> 100 µM	> 100 µM	89.5 µM	> 100 µM	> 100 µM	> 100 µM	> 71.1 µM	65.4 µM
C=CC(=O)N1C/C(=C\c2ccc(Cl)cc2)C(=O)/C(=C/c2ccc(Cl)cc2)C1	0.739 µM	0.257 µM	1.36 µM	0.751 µM	0.617 µM	0.419 µM	0.704 µM	0.887 µM	3.65 µM	1.17 µM	1.02 µM
Cc1c(-c2ccccc2)[nH]n(C2=NCCN2)c1=O	–	> 100 µM	> 100 µM	> 100 µM	> 100 µM	> 100 µM	–	> 100 µM	> 100 µM	> 100 µM	> 100 µM
COc1ccc(Oc2cnn(C(Br)(Br)C(C)=O)c(=O)c2Br)cc1	30.6 µM	19.2 µM	> 71.6 µM	27.4 µM	29 µM	25.4 µM	28.5 µM	27.8 µM	28.5 µM	26.8 µM	26.4 µM
O=S1(=O)C[C@@H](NCc2ccccc2)[C@H](NCc2ccccc2)C1	> 100 µM	> 100 µM	> 100 µM	> 100 µM	> 100 µM	> 100 µM	> 100 µM	> 100 µM	> 100 µM	> 100 µM	> 100 µM
CC(C)[Si](OC/C(=C/COC(C)(C)C)[C@H]1CC=C(C(=O)c2ccccc2N2CN(C)C(=O)N(C)C2)C1)(C(C)C)C(C)C	31 µM	4.97 µM	13.2 µM	18.1 µM	17.3 µM	17.8 µM	24.9 µM	6.61 µM	23.9 µM	23.1 µM	28.6 µM
O=C1OC(c2ccccc2)N(C(=O)c2ccccc2)C1Cc1ccc(OCc2ccccc2)cc1 (configuration not stated)	> 100 µM	> 100 µM	> 100 µM	> 100 µM	> 100 µM	> 100 µM	> 100 µM	> 100 µM	–	> 100 µM	> 100 µM
C(=C\c1ccccc1)/COc1ccccc1C(N1CCOCC1)n1nc2ccccc2n1 (configuration not stated)	34.8 µM	22.8 µM	41.2 µM	10.9 µM	28.5 µM	6.62 µM	24.1 µM	36.5 µM	25.5 µM	31.6 µM	38.8 µM
CCOC(=O)NC(Nc1c(F)c(F)c(F)c(F)c1F)(C(F)(F)F)C(F)(F)F	> 100 µM	> 100 µM	> 100 µM	> 100 µM	> 100 µM	> 100 µM	> 100 µM	> 100 µM	> 100 µM	> 100 µM	> 100 µM
CN(C)c1ccc(Cc2cc3c(O)ccc(O)c3cc(Cc3ccc(N(C)C)cc3)c2=O)cc1	64 µM	40.8 µM	97.9 µM	32.7 µM	> 77.5 µM	60.9 µM	> 73.2 µM	41.9 µM	48.9 µM	27.7 µM	25.3 µM
CC(C)C1=C(O)C2=C(C(=O)C1=O)C1(C)CCCC(C)(C)C1C(O)C2OC=O (configuration not stated)	19.2 µM	20.3 µM	98.8 µM	30.6 µM	24.4 µM	31.5 µM	23.2 µM	13.1 µM	21.6 µM	18.8 µM	13.2 µM
